Drawing on article PMC4829348 (Journal of medicinal chemistry, 2016), this text covers inhibition for two molecules.

The target in the assay is WT A/M2 protein (Influenza A virus, UniProt P0DOF5). Description: biochemical. To be noted: read-out: % WT inhibition.
Sequence of WT A/M2 protein (P0DOF5 whole entry): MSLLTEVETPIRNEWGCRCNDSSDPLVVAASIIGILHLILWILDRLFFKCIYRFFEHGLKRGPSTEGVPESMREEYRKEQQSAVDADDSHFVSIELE

As usually defined, the inhibition is the share of the control response that was lost under treatment. For `c1ccc(-c2nc(CNC34CC5CC(CC(C5)C3)C4)cs2)cc1` [26i], the inhibition at 100 µM worked out at 0%. As for `Oc1ccc(NC23CC4CC(CC(C4)C2)C3)c(O)c1` [compound 5], the figure is 64%.
